In BindingDB's records for doi:10.1016/s0960-894x(03)00014-3 (Merck Research Laboratories, 2003):

Assay: Inhibition of T-cell proliferation was determined by a human T-cell assay

IC50 [nM] | Structure (SMILES)
609 | COc1ccccc1C(=O)NC[C@]1(c2ccccc2)CC[C@H](NC(=O)Cc2ccccc2)CC1 [2-Methoxy-N-(1-phenyl-4-phenylacetylamino-cyclohexylmethyl)-benzamide]
1200 | COc1ccccc1C(=O)NCC1(c2ccccc2)CCC(=O)CC1 [2-Methoxy-N-(4-oxo-1-phenyl-cyclohexylmethyl)-benzamide]
200 | COc1ccccc1C(=O)NC[C@]1(c2ccccc2)CC[C@H](NC(=O)CCc2ccccc2)CC1 [2-Methoxy-N-[1-phenyl-4-(3-phenyl-propionylamino)-cyclohexylmethyl]-benzamide]
1790 | COc1ccccc1C(=O)NC[C@]1(c2ccccc2)CC[C@@H](OC(=O)NCCO)CC1 [(2-Hydroxy-ethyl)-carbamic acid 4-[(2-methoxy-benzoylamino)-methyl]-4-phenyl-cyclohexyl ester]
1000 | COCCNC(=O)O[C@H]1CC[C@@](CNC(=O)c2ccccc2OC)(c2ccccc2)CC1 [(2-Methoxy-ethyl)-carbamic acid 4-[(2-methoxy-benzoylamino)-methyl]-4-phenyl-cyclohexyl ester]
688 | C=C(C)CNC(=O)O[C@H]1CC[C@@](CNC(=O)c2ccccc2OC)(c2ccccc2)CC1 [(2-Methyl-allyl)-carbamic acid 4-[(2-methoxy-benzoylamino)-methyl]-4-phenyl-cyclohexyl ester]
361 | C=CCNC(=O)O[C@H]1CC[C@@](CNC(=O)c2ccccc2OC)(c2ccccc2)CC1 [Allyl-carbamic acid 4-[(2-methoxy-benzoylamino)-methyl]-4-phenyl-cyclohexyl ester]
1100 | C=CCNC(=O)O[C@H]1CC[C@](CNC(=O)c2ccccc2OC)(c2ccccc2)CC1 [Allyl-carbamic acid 4-[(2-methoxy-benzoylamino)-methyl]-4-phenyl-cyclohexyl ester]
659 | C=CCN(C)C(=O)O[C@H]1CC[C@](CNC(=O)c2ccccc2OC)(c2ccccc2)CC1 [Allyl-methyl-carbamic acid 4-[(2-methoxy-benzoylamino)-methyl]-4-phenyl-cyclohexyl ester]
915 | COc1ccccc1C(=O)NC[C@]1(c2ccccc2)CC[C@H](OC(=O)NCc2ccccc2)CC1 [Benzyl-carbamic acid 4-[(2-methoxy-benzoylamino)-methyl]-4-phenyl-cyclohexyl ester]
688 | CCCCNC(=O)O[C@H]1CC[C@@](CNC(=O)c2ccccc2OC)(c2ccccc2)CC1 [Butyl-carbamic acid 4-[(2-methoxy-benzoylamino)-methyl]-4-phenyl-cyclohexyl ester]
320 | CCCCNC(=O)O[C@H]1CC[C@](CNC(=O)c2ccccc2OC)(c2ccccc2)CC1 [Butyl-carbamic acid 4-[(2-methoxy-benzoylamino)-methyl]-4-phenyl-cyclohexyl ester]
519 | COc1ccccc1C(=O)NC[C@]1(c2ccccc2)CC[C@H](OC(N)=O)CC1 [Carbamic acid 4-[(2-methoxy-benzoylamino)-methyl]-4-phenyl-cyclohexyl ester]
222 | COc1ccccc1C(=O)NC[C@]1(c2ccccc2)CC[C@@H](OC(=O)NC(C)C)CC1 [Isopropyl-carbamic acid 4-[(2-methoxy-benzoylamino)-methyl]-4-phenyl-cyclohexyl ester]
892 | COc1ccccc1C(=O)NC[C@]1(c2ccccc2)CC[C@H](OC(=O)NC(C)C)CC1 [Isopropyl-carbamic acid 4-[(2-methoxy-benzoylamino)-methyl]-4-phenyl-cyclohexyl ester]
195 | CNC(=O)O[C@H]1CC[C@@](CNC(=O)c2ccccc2OC)(c2ccccc2)CC1 [Methyl-carbamic acid 4-[(2-methoxy-benzoylamino)-methyl]-4-phenyl-cyclohexyl ester]
1260 | CNC(=O)O[C@H]1CC[C@](CNC(=O)c2ccccc2OC)(c2ccccc2)CC1 [Methyl-carbamic acid 4-[(2-methoxy-benzoylamino)-methyl]-4-phenyl-cyclohexyl ester]
154 | COc1ccccc1C(=O)NC[C@]1(c2ccccc2)CC[C@H](NC(=O)c2ccccc2)CC1 [N-(4-Benzoylamino-1-phenyl-cyclohexylmethyl)-2-methoxy-benzamide]
676 | C=CCNC(=O)N[C@H]1CC[C@@](CNC(=O)c2ccccc2OC)(c2ccccc2)CC1 [N-[4-(3-Allyl-ureido)-1-phenyl-cyclohexylmethyl]-2-methoxy-benzamide]
430 | C=CCNC(=O)N[C@H]1CC[C@](CNC(=O)c2ccccc2OC)(c2ccccc2)CC1 [N-[4-(3-Allyl-ureido)-1-phenyl-cyclohexylmethyl]-2-methoxy-benzamide]
399 | C/C=C/C(=O)N[C@H]1CC[C@](CNC(=O)c2ccccc2OC)(c2ccccc2)CC1 [N-[4-((E)-But-2-enoylamino)-1-phenyl-cyclohexylmethyl]-2-methoxy-benzamide]
237 | COc1ccccc1C(=O)NC[C@]1(c2ccccc2)CC[C@H](OC(=O)Nc2ccccc2)CC1 [Phenyl-carbamic acid 4-[(2-methoxy-benzoylamino)-methyl]-4-phenyl-cyclohexyl ester]
273 | CCCNC(=O)O[C@H]1CC[C@@](CNC(=O)c2ccccc2OC)(c2ccccc2)CC1 [Propyl-carbamic acid 4-[(2-methoxy-benzoylamino)-methyl]-4-phenyl-cyclohexyl ester]
539 | C=CCOC(=O)N[C@H]1CC[C@@](CNC(=O)c2ccccc2OC)(c2ccccc2)CC1 [{4-[(2-Methoxy-benzoylamino)-methyl]-4-phenyl-cyclohexyl}-carbamic acid allyl ester]
354 | C=CCOC(=O)N[C@H]1CC[C@](CNC(=O)c2ccccc2OC)(c2ccccc2)CC1 [{4-[(2-Methoxy-benzoylamino)-methyl]-4-phenyl-cyclohexyl}-carbamic acid allyl ester]
1060 | COC(=O)N[C@H]1CC[C@@](CNC(=O)c2ccccc2OC)(c2ccccc2)CC1 [{4-[(2-Methoxy-benzoylamino)-methyl]-4-phenyl-cyclohexyl}-carbamic acid methyl ester]
618 | COc1ccccc1C(=O)NC[C@]1(c2ccccc2)CC[C@@H](NC(=O)SC)CC1 [{4-[(2-Methoxy-benzoylamino)-methyl]-4-phenyl-cyclohexyl}-thiocarbamic acid methyl ester]
